Assay results taken from US11298353B2, “Anti-inflammatory composition” (OSTEONEUROGEN INC., priority 2019, dated 2022).

How the values were obtained:
RAW264.7 cell line [1] = test: TNFα expression in macrophages treated with various concentrations of LPS (real-time PCR); type: cell-based; conditions: LPS 100 ng/ml to 10 μg/ml + compound 50 μM
Description: (§1) Specifically, the RAW264.7 cell line was cultured in RPMI liquid medium, and then divided into a normal control group (untreated), a group treated with LPS (100 ng/ml), and a group treated with the compound of the present invention (cells treated with 100 ng/ml of LPS and treated with 25 or 50 μM of the compound of the present invention). Each of the test groups treated was incubated for 24 hours, and then total RNA was extracted from the cell of each test group and synthesized into cDNA per 1 μg of total RNA, and real-time PCR for each inflammatory factor was performed. The real-time PCR was performed for […], and then the obtained data were statistically processed using t-test.
In addition, according to the same method as described above, the RAW264.7 cell line was treated with various concentrations (100 ng/ml to 10 μg/ml) of LPS, and the effect of treatment with 50 μM of the compound (Formula 2) of the present invention was examined.

ONGHEPA1 cell line [2] = test: CCL2 and CCL7 expression in TGF-β-treated hepatic stellate cells (real-time PCR); type: cell-based, mouse; conditions: TGF-β 10 ng/ml + compound 50 μM
Description: (§2) Using the ONGHEPA1 cell line, the production of reactive oxygen species (ROS) in a group treated with TGF-β (10 ng/ml) and a group treated with TGF-β (10 ng/ml)+the compound (Formula 2; 50 μM) of the present invention was compared by cell staining H2DCFDA (ThermoFischer, D399) which is a reactive oxygen species staining reagent, and the expression of CCL2 and CCL7 was compared by real-time PCR.

ONGHEPA1 cell line [3] = test: Reactive oxygen species production in TGF-β-treated hepatic stellate cells (H2DCFDA staining); type: cell-based, mouse; conditions: TGF-β 10 ng/ml + compound 50 μM
Description: as §2

CD14 [4] = biological target: T1, CD14 (Mus musculus, UniProt P10810); test: CD14 FITC immunofluorescence staining in LPS-treated RAW264.7 cells; type: cell-based; conditions: LPS 100 ng/ml + compound 50 μM
T1 construct: endogenous in cells; host or cells: RAW264.7
T1 sequence (P10810 16-336): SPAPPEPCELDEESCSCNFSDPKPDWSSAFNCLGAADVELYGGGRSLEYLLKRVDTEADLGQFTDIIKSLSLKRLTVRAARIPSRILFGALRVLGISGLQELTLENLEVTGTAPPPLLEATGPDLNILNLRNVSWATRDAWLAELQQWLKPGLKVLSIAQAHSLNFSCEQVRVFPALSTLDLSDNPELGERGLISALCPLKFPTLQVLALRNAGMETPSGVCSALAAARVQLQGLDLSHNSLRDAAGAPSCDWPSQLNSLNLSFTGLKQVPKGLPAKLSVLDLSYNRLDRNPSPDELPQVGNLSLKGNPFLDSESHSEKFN
Text: To verify this determination, the change in expression of an early inflammatory response stage factor (a factor involved in the early stage of LPS-induced inflammatory response) by treatment with the compound (Formula 2) of the present invention was examined by immunofluorescence staining using FITC.
Looking at the control group in FIG. 9 (see FIG. 10 which is an enlarged view), it can be seen that FITC fluorescence is concentrated on the surface (membrane portion) of the cell. […] However, looking at the LPS-treated group (see FIG. 10 which is an enlarged view), it can be seen that the cell changes into a circular shape and FITC fluorescence is distributed throughout the cell without being concentrated on the surface of the cell. This means that when treated with LPS, CD14 did bind to LPS and endocytosis occurred. In the case of the group treated with the compound of the present invention (see FIG. 12 which is an enlarged view), the same pattern as that in the control group appeared despite LPS treatment.

[5] = system: diseased human lung fibroblasts (DHLFs); test: Transcriptome analysis of TGF-β-treated diseased human lung fibroblasts; type: cell-based; conditions: TGF-β 10 ng/ml + compound 50 μM, genes up-regulated at p<0.005
Description: Using diseased human lung fibroblasts (DHLFs) isolated from idiopathic pulmonary fibrosis patients, transcriptomes were analyzed comparatively between a group treated with TGF-β (10 ng/ml) and a group treated with TGF-β (10 ng/ml)+the compound (Formula 2) (50 μM) of the present invention.

CD14 [6] = test: CD14 expression in LPS-treated RAW264.7 cells (Western blot); type: cell-based; conditions: LPS 100 ng/ml + compound 50 μM, 5 to 15 minutes after LPS
Description: In addition, in order to examine the effect of the compound of the present invention on the expression of CD14, the expression of CD14 in a group treated with LPS (100 ng/ml) and a group treated with 50 μM of the compound (Formula 2) of the present invention was compared by Western blot analysis.

RAW264.7 cell line [7] = test: Expression of inflammatory factors in LPS-treated macrophages (real-time PCR or ELISA); type: cell-based; conditions: LPS 100 ng/ml + compound 25 or 50 μM, 24 hours
Text: In order to confirm the effect of the compound of the present invention in a special anti-inflammatory model, the anti-inflammatory effect of the compound of the present invention was examined using the RAW264.7 cell line (macrophage cell line).
Using the RAW264.7 cell line, the expression of inflammatory factors, INFα, IL-1β, CCL2 (MCP-1), CCL7 (MCP-3), CXCL2, CHOP and NOX1, in a group treated with LPS (lipopolysaccharide) and a group treated with LPS+the compound (Formula 2) of the present invention, was compared by real-time PCR or ELISA.
as §1

ONGHEPA1 cell line [8] = test: NOX4 expression in TGF-β-treated hepatic stellate cells (real-time PCR, ICC); type: cell-based, mouse; conditions: TGF-β 10 ng/ml + compound 50 μM, real-time PCR and ICC
Description: Using the ONGHEPA1 cell line (KCTC13086BP) which is a mouse hepatic stellate cell line, the expression of NOX4 in a group treated with TGF-β (10 ng/ml) and a group treated with TGF-β (10 ng/ml)+the compound (Formula 2; 50 μM) of the present invention was compared by real-time PCR and immunocytochemistry (ICC).

## COc1ccc(-c2cc(=O)c3c(O)c(OC)c(OCCN4CCNC(=O)C4)cc3o2)cc1OC [Formula 2]
RAW264.7 cell line [1]
  expression of TNFα: blocked the expression of TNFα regardless of the concentration of LPS
ONGHEPA1 cell line [2]
  expression of CCL2: inhibited
  expression of CCL7: inhibited
ONGHEPA1 cell line [3]
  production of reactive oxygen species: inhibited
CD14 [4]
  activity of CD14 involved in the early stage of inflammatory response: inhibited
  interaction between CD14 and LPS (CD14 endocytosis pattern): blocked the interaction between CD14 and LPS
[5]
  inhibition of TGF-β up-regulated gene expression: NOX4: selected genes included NOX4
CD14 [6]
  increase in expression of CD14: decreased
RAW264.7 cell line [7]
  expression of CCL2 (MCP-1): decreased
  expression of CCL7 (MCP-3): decreased
  expression of CHOP: decreased
  expression of CXCL2: decreased
  expression of IL-1β: decreased
  expression of INFα: decreased
  expression of NOX1: decreased
ONGHEPA1 cell line [8]
  increase in the expression of NOX4: inhibited
